Data published in paper PMC10385371, “Discovery of Novel Coumarin-Schiff Base Hybrids as Potential Acetylcholinesterase Inhibitors: Design, Synthesis, Enzyme Inhibition, and Computational Studies” (Pharmaceuticals, 2023).
Several values for one entry are separate records, joined by “and”; a condition that tells them apart may be missing. Equal values may be shown once.

Key:
[1] = target: T1, Acetylcholinesterase (Type VI-S, from Electrophorus electricus) (Electrophorus electricus, UniProt O42275); test: biochemical; assay type: biochemical; settings: for IC50: read-out: IC50 against AChE; for potency relative to galantamine (positive control): ratio of AChE IC50 values
T1 construct: purchased Sigma Aldrich Type VI-S (catalogue number not given)
Procedure: The procedure described by Ellman, slightly modified, was performed to assess the AChE inhibitory activity of synthesized compounds, according to reported procedures in the literature. Detailed protocol is provided in supplementary materials. […]
In vitro inhibition study on AChE
The assay for AChE inhibitory activity was done based on a modified protocol. Acetylcholinesterase (Type VI-S, from Electrophorus electricus), 5,5′-dithiobis-2-nitrobenzoic acid (Ellman's reagent, DTNB) and acetylthiocholine chloride (ATCI) were purchased from Sigma Aldrich. Enzyme solutions were prepared to give 0.28 units/mL aliquots. Stock solutions were prepared by dissolving 1 mg of tested compounds in 1 mL of DMSO and diluted to a final concentration of 1000, 800, 600, 400, 200, 100, and 50 µg/mL. The assay buffer solution A (pH = 8.0) was prepared by taking 93.2 mL of solution (6 g of sodium dihydrogen phosphate was dissolved in 500 mL of deionized water) and mixed with 6.8 mL of solution (7 g of sodium hydrogen phosphate was dissolved in 500 mL of deionized water) and adjusted. 57.7 mL of sodium dihydrogen phosphate and 42.3 mL of sodium hydrogen phosphate were mixed and adjusted to prepare the buffer B (pH = 7.0). […]
fresh solutions of 0.01 M DTNB (0.396 g of DTNB and 15 mg NaHCO3 were dissolved in 100 mL of the buffer B) in a dark place, and 0.075 M ATCI (0.2048 g of ATCI was dissolved in 10 mL of deionized water), were prepared. In 96-well plates, 20 μL of the test compounds, 10 μL of DTNB, 15 μL of the enzyme (AChE) and 140 μL of the buffer solution A, were added in dark conditions and incubated for 15 min, followed by the addition of ATCI (10 μL) and incubated again for the same period. The activity was measured by reading the absorbance of the solution at 412 nm. Blanks containing all the components except the enzyme were carried out.
IC50 values were calculated as the concentration of a compound that produces 50% enzyme activity inhibition using the GraphPad Prism 8 programme package. Results are expressed as the mean ± SD of at least three different experiments performed in triplicate.
Percentage inhibition was calculated by this formula:
% ሺInhibitionሻ = B−AB X 100
• A= absorbance of the enzyme with the test sample;
• B = absorbance of the enzyme without test sample.
• Each experiment was repeated thrice.

AChE = settings: read-out: IC50 against AChE; cited from earlier work
[2] = target: human monoamine oxidase hMAO-A; settings: cited from earlier work
[3] = target: human monoamine oxidase hMAO-B; settings: cited from earlier work

T1 sequence (O42275 24-633): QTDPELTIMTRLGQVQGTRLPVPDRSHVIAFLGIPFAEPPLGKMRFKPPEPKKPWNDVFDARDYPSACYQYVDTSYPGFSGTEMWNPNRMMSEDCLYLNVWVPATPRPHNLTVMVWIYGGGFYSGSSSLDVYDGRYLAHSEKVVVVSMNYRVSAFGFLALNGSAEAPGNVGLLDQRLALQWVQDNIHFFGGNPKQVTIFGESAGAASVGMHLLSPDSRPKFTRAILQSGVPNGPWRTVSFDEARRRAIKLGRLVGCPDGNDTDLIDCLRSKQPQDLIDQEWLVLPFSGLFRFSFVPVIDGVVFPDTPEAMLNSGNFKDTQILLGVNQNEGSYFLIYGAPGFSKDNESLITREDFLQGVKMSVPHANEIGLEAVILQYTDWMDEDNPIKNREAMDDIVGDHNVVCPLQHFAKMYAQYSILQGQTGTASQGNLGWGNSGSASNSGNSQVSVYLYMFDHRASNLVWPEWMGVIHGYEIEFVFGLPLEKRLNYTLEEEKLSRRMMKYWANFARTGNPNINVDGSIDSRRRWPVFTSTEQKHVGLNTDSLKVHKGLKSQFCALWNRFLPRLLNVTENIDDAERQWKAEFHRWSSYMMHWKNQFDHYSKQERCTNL

COc1ccc2c(COc3ccc(/C=N/c4ccccc4)cc3)cc(=O)oc2c1 [13a, (E)-7-Methoxy-4-((4-((phenylimino)methyl)phenoxy)methyl)-2H-chromen-2-one]
IC50 [1]: 440 ± 16 µM

COc1ccc(/N=C/c2ccc(OCc3cc(=O)oc4cc(OC)ccc34)cc2)cc1 [13b, (E)-7-Methoxy-4-((4-(((4-methoxyphenyl)imino)methyl)phenoxy)methyl)-2H-chromen-2-one]
IC50 [1]: 466 ± 7 µM

COc1ccc2c(COc3ccc(/C=N/c4ccc(Cl)cc4)cc3)cc(=O)oc2c1 [13c, (E)-4-((4-(((4-Chlorophenyl)imino)methyl)phenoxy)methyl)-7-methoxy-2H-chromen-2-one]
potency relative to galantamine (positive control) [1]: 5 fold and ~ 5 fold
IC50 [1]: 232 ± 11 µM

COc1ccc2c(COc3ccc(/C=N/c4ccc(Cl)cc4)cc3OC)cc(=O)oc2c1 [13d, (E)-4-((4-(((4-Chlorophenyl)imino)methyl)-2-methoxyphenoxy)methyl)-7-methoxy-2H-chromen-2-one]
potency relative to galantamine (positive control) [1]: 5 fold and ~ 5 fold

COc1ccc2c(COc3ccc(/C=N/c4ccccc4)cc3OC)cc(=O)oc2c1 [13e, (E)-7-Methoxy-4-((2-methoxy-4-((phenylimino)methyl)phenoxy)methyl)-2H-chromen-2-one]
IC50 [1]: 297 ± 6 µM

COc1ccc(/N=C/c2ccc(OCc3cc(=O)oc4cc(OC)ccc34)c(OC)c2)cc1 [13f, (E)-7-Methoxy-4-((2-methoxy-4-(((4-methoxyphenyl)imino)methyl)phenoxy)methyl)-2H-chromen-2-one]
IC50 [1]: 365 ± 25 µM

COc1ccc(/N=C/c2cccc(OCc3cc(=O)oc4cc(OC)ccc34)c2)cc1 [13g, (E)-7-Methoxy-4-((3-(((4-methoxyphenyl)imino)methyl)phenoxy)methyl)-2H-chromen-2-one]
IC50 [1]: 1090 ± 58 µM

COc1ccc2c(COc3cc(/C=N/c4ccc(Cl)cc4)ccc3OC)cc(=O)oc2c1 [13i, (E)-4-((5-(((4-Chlorophenyl)imino)methyl)-2-methoxyphenoxy)methyl)-7-methoxy-2H-chromen-2-one]
IC50 [1]: 712 ± 44 µM

COc1ccc2c(COc3cccc(/C=N/c4ccc(Cl)cc4)c3)cc(=O)oc2c1 [13j, (E)-4-((3-(((4-Chlorophenyl)imino)methyl)phenoxy)methyl)-7-methoxy-2H-chromen-2-one]
IC50 [1]: 651 ± 3 µM

Cc1c(O)ccc2c(CC(=O)NCCN3CCN(Cc4ccccc4)CC3)cc(=O)oc12 [compound 3]
IC50 (AChE): 0.04 µM

O=c1oc2ccccc2c(O)c1/N=C/c1ccc(O)c(O)c1O [compound 4]
IC50 [2]: 0.673 µM
IC50 [3]: 0.711 µM

O=C(N/N=C\c1c2ccccc2cc2ccccc12)c1ccccc1O [compound 5]
IC50 (AChE): 4.12 µM
